PMC12197678, “Cvill6 and Cvill7: Potent and Selective Peptide Blockers of Kv1.2 Ion Channel Isolated from Mexican Scorpion Centruroides villegasi” (Toxins, 2025)
Like-named read-outs stand apart in the source and are kept apart here. Positions of bridges follow the written chain, without caps; N, C: chain ends. Residues, ends and D or L forms follow the SMILES beside them.

What was measured:
hKv1.3 = target: T1, hKv1.3 (Homo sapiens, UniProt P22001); assay: cell-based; format: cell-based
T1 construct: peripheral blood mononuclear cells (PBMCs) were isolated from the healthy donor’s blood; endogenous in cells
Description: Therefore, we aimed to investigate the effects of Cvill6 and Cvill7 on voltage-gated K^+ ion channels. Among the tested ion channels there were four members from the Shaker-related human Kv1 family, hKv1.1, hKv1.2, hKv1.3, and hKv1.5 (Figure 3A–E), and one member of the human ether-a-go-go-related (hERG) cardiac K^+ channel hKv11.1 (hERG1, Figure 3F). For current recordings, Kv1.1, Kv1.2, and Kv1.5 were transiently expressed in CHO cells while for Kv11.1 a stable HEK293 cell line was used. To record Kv1.3 currents human peripheral T lymphocytes were activated with Phytohemagglutinin A (PHA) to boost Kv1.3 expression and Ca^2+-free intracellular solution to prevent the KCa3.1 channel opening. […] Appropriate voltage protocols were applied to record the K^+ currents from voltage-clamped cells in whole-cell configurations. Toxins were freshly dissolved in the bath solution supplemented with 0.1 mg/mL BSA and applied to the patched cells via a gravity-fed micro-perfusion system with an approximate flow rate of 200 µL/min.
To avoid toxin adsorption onto the plastic surfaces of the perfusion system, 0.1 mg/mL of bovine serum albumin (BSA, Sigma-Aldrich, Budapest, Hungary) was also added into all bath solutions prior to the patch-clamp assay.
Whole-cell currents were recorded using the patch-clamp technique in voltage-clamp mode, following standard protocols. […] Micropipettes were made from GC150F-7.5 borosilicate capillaries (Harvard Apparatus Co., Holliston, MA, USA) using a Sutter P2000 laser puller with tip resistance generally ranging from 3–6 MΩ in the bath solution. Only recordings with a leak current at the holding potential (Vh) of <10% of the peak current at the test potential were included in the data analysis. All recordings were performed at room temperature (20–25 °C). Control and test solutions were perfused to the cells via a gravity-driven micro-perfusion system and AutoMate Perfusion Pencil Multi-Barrel Manifold Tip (AutoMate Scientific, Berkeley, CA, USA), with an approximate flow rate of 200 µL/min, and the excess amount of bath solution was continuously removed from the recording chamber using vacuum suction.
The duration of depolarization pulses was 15 ms for Kv1.3 and 50 ms for Kv1.1 and Kv1.5. However, for Kv1.2, 15–500 ms-long pulses were used to achieve the saturated peak current due to the variable activation kinetics of this channel. […] KCa2.2 and KCa3.1 currents were recorded by applying 150 ms-long voltage ramps to +50 mV from −120 mV every 10 s; the Vh was set to −85 mV.
Before analysis, all current traces were digitally filtered using three-point boxcar smoothing and were corrected for ohmic leakage, only if required. […] Data points in the concentration–response curve represent the mean RCF values of three to six individual cells, with error bars denoting the standard error of the mean (SEM). The data points for each concentration were fitted using the Hill equation: RCF = IC50^H/(IC50^H + [toxin]^H), where IC50 is the dissociation constant, H represents the Hill coefficient, and [toxin] is the concentration of the toxin.
To study the binding kinetics of Cvill toxins, the peak current during the application of toxin at time point t (It) was normalized to the peak current (I0) before the toxin exposure (Inorm = It/I0) and plotted as a function of time.

hKv1.2 = target: T2, hKv1.2 (Homo sapiens, UniProt P16389); assay: Whole-cell patch-clamp, hKv1.2 current in transiently transfected CHO cells; format: cell-based; conditions: for inhibition at 0.001 µM / koff / kon: CHO; for inhibition at 0.001 µM: 1 nM; for koff: calculated from τoff; for koff / kon: 100 pM Cvill7 (n = 4) or 100 nM Cvill6 (n = 5); for kon: calculated from τon and τoff; for selectivity for Kv1.2 over Kv1.3: IC50 ratio; for τon (development of block) / τoff (wash-out): mean ± SEM; for Hill coefficient (H): Hill equation fit of RCF values; for mode of block: inferred from Hill coefficients close to 1 and single-exponential kinetics; for reversibility of Kv1.2 block: wash-out with toxin-free solution
T2 construct: host or cells: CHO cells, transient transfection (Lipofectamine 2000)

[1] = read-out: inhibition of hKv1.3 current
[2] = representative record, read-out: inhibition of hKv1.2 current

T2 sequence (P16389 whole entry): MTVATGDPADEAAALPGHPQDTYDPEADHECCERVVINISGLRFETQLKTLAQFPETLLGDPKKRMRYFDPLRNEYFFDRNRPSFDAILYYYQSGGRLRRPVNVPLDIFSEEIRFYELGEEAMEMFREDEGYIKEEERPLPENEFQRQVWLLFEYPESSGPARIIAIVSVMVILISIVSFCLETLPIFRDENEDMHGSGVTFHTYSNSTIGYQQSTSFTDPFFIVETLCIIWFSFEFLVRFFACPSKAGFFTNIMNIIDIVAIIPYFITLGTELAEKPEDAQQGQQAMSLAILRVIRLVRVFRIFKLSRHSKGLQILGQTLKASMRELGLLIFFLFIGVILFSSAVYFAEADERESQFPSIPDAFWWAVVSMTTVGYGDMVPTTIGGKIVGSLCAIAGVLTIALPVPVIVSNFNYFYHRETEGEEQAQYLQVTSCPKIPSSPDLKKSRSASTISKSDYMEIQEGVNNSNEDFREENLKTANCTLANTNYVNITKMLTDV
T1 sequence (P22001 whole entry): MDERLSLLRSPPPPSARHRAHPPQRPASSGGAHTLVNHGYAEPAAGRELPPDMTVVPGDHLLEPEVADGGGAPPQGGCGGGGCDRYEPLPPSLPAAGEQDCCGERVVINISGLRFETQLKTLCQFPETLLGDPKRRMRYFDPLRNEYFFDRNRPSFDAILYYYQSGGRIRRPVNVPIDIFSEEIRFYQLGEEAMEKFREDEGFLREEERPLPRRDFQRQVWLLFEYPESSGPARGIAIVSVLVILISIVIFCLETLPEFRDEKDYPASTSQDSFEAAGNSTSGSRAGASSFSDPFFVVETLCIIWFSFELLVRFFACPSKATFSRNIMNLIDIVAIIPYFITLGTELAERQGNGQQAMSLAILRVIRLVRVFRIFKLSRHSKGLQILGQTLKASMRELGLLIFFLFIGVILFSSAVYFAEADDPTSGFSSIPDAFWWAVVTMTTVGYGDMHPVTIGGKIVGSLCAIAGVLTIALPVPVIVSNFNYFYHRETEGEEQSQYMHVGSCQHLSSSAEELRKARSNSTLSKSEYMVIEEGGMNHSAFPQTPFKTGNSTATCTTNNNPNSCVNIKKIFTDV

CC[C@H](C)[C@H](N)C(=O)N[C@@H](Cc1ccccc1)C(=O)N[C@H](C(=O)N[C@@H](CC(N)=O)C(=O)N[C@H](C(=O)N[C@@H](CCCCN)C(=O)N[C@H]1CSSC[C@@H]2NC(=O)[C@H](CCCCN)NC(=O)CNC(=O)CNC(=O)[C@H](C)NC(=O)[C@H](Cc3c[nH]cn3)NC(=O)[C@H](CCC(N)=O)NC(=O)CNC(=O)[C@H](Cc3ccccc3)NC(=O)[C@H](CCCNC(=N)N)NC(=O)[C@H](CC(=O)O)NC(=O)[C@H](CCCCN)NC(=O)[C@@H]3CSSC[C@@H](C(=O)N[C@@H](Cc4ccc(O)cc4)C(=O)N4CCC[C@H]4C(=O)O)NC(=O)[C@H](CCCCN)NC(=O)[C@H](CSSC[C@H](NC(=O)[C@H](CCC(N)=O)NC(=O)[C@H](CCC(N)=O)NC(=O)[C@@H]4CCCN4C(=O)[C@H](CC(C)C)NC(=O)[C@H](CC(=O)O)NC1=O)C(=O)N[C@@H](CC(C)C)C(=O)N[C@@H](CCCNC(=N)N)C(=O)N1CCC[C@H]1C(=O)N3)NC(=O)[C@H](CCCCN)NC(=O)CNC(=O)[C@H](CC(N)=O)NC(=O)[C@H]([C@@H](C)CC)NC2=O)C(C)C)[C@@H](C)CC [Cvill6] (H-IFINVKCDLPQQCLRPCKDRFGQHAGGKCINGKCKCYP-OH; disulfide 7-29, 13-34, 17-36 (inferred); N-terminus and C-terminus assumed)
potency estimated from few doses (hKv1.3; read-out: estimated IC50): ~840 nM
inhibition at 0.1 µM (hKv1.3; read-out: inhibition of Kv1.3): ~11%
inhibition at 0.1 µM (hKv1.3; [1]): ~13%
IC50 (hKv1.2): 3.9 ± 0.27 nM
steady-state block of Kv1.2 (hKv1.2; 100 nM, n = 5): 97 ± 1.2%
inhibition at 0.001 µM (hKv1.2; [2]): ~28%
inhibition at 0.001 µM (hKv1.2; screening summary (Figure 3G), read-out: inhibition of hKv1.2 currents): ~16%
koff (hKv1.2; Kv1.2): 0.00091 s⁻¹
kon (hKv1.2; Kv1.2): 290000 M⁻¹ s⁻¹
times less potency for Kv1.2 than Cvill7 (hKv1.2; IC50 comparison): 244 times
selectivity for Kv1.2 over Kv1.3 (hKv1.2): ~ 215 fold
τon (development of block) (hKv1.2; Kv1.2, 100 nM, n = 5): 35 ± 2.7 s
τon, representative fit (hKv1.2; Kv1.2, 100 nM, representative fit (Figure S5C)): 38.7 s
Hill coefficient (H) (hKv1.2; Kv1.2): 1.4
τoff (wash-out) (hKv1.2; Kv1.2, after 100 nM, n = 5): 1287 ± 259 s
τoff, representative fit (hKv1.2; Kv1.2, after 100 nM, representative fit (Figure S5C)): 776.4 s
Kd (hKv1.2; Kv1.2, koff/kon ratio, 100 nM, read-out: dissociation constant (Kd), koff/kon): 3.3 nM
mode of block (hKv1.2): pore blockers that interact with channels with 1:1 stoichiometry in a bimolecular interaction
recovery of Kv1.2 current, up to % of initial current (hKv1.2; toxin-free solution after 100 nM): up to 65%
reversibility of Kv1.2 block (hKv1.2): reversible but with very slow dissociation kinetics

CC[C@H](C)[C@H](NC(=O)[C@H](Cc1ccccc1)NC(=O)[C@@H](N)[C@@H](C)O)C(=O)N[C@@H](CC(N)=O)C(=O)N[C@H](C(=O)N[C@@H](CCCCN)C(=O)N[C@H]1CSSC[C@@H]2NC(=O)[C@H](CCCCN)NC(=O)CNC(=O)CNC(=O)[C@H](C)NC(=O)[C@H](Cc3c[nH]cn3)NC(=O)[C@@H]3CCCN3C(=O)CNC(=O)[C@H](Cc3ccc(O)cc3)NC(=O)[C@H](CC(C)C)NC(=O)[C@H](CC(=O)O)NC(=O)[C@H](CCCCN)NC(=O)[C@@H]3CSSC[C@@H](C(=O)N[C@@H](Cc4ccc(O)cc4)C(=O)N[C@@H](CC(N)=O)C(=O)N[C@@H](CC(N)=O)C(N)=O)NC(=O)[C@H](CCCCN)NC(=O)[C@H](CSSC[C@H](NC(=O)[C@H](CCC(N)=O)NC(=O)[C@H](CCCCN)NC(=O)[C@@H]4CCCN4C(=O)[C@H](CO)NC(=O)[C@H]([C@@H](C)O)NC1=O)C(=O)N[C@@H](CC(C)C)C(=O)N[C@@H](CCCCN)C(=O)N1CCC[C@H]1C(=O)N3)NC(=O)[C@H](CCCCN)NC(=O)CNC(=O)[C@H](CC(N)=O)NC(=O)[C@H](CCSC)NC2=O)C(C)C [Cvill7] (H-TFINVKCTSPKQCLKPCKDLYGPHAGGKCMNGKCKCYNN-NH2; disulfide 7-29, 13-34, 17-36; N-terminus and C-terminus assumed)
IC50 (hKv1.3): 7.2 ± 0.64 nM
Kd (hKv1.3): 25 nM
koff (hKv1.3): 0.032 ± 0.0068 s⁻¹
kon (hKv1.3): 1.3e+06 M⁻¹ s⁻¹
reversibility of Kv1.3 block (hKv1.3; 15 nM, then toxin-free solution): fully reversible with rapid association and dissociation kinetics
equilibrium block of Kv1.3 (hKv1.3; 15 nM, n = 3): 67 ± 3%
τon (development of block) (hKv1.3; Kv1.3, 15 nM, mean ± SEM, n = 3): 20 ± 1.8 s
τon, representative fit (hKv1.3; Kv1.3, 15 nM, representative fit (Figure S5B)): 22.6 s
Hill coefficient (H) (hKv1.3; Kv1.3, Hill equation fit of RCF values): 0.73
τoff (wash-out) (hKv1.3; Kv1.3, after 15 nM, mean ± SEM, n = 3): 34 ± 6 s
τoff, representative fit (hKv1.3; Kv1.3, after 15 nM, representative fit (Figure S5B)): 34.5 s
inhibition at 0.1 µM (hKv1.3; [1]): ~86%
IC50 (hKv1.2): 0.016 ± 0.00156 nM
time to apparent saturation of Kv1.2 block (hKv1.2; 100 pM): 7 to 8 min
loss of Kv1.2 current at saturation (hKv1.2; 100 pM, n = 4): 96 ± 1.4%
inhibition at 0.001 µM (hKv1.2; [2]): > 97%
koff (hKv1.2; Kv1.2): 0.00017 s⁻¹
kon (hKv1.2; Kv1.2): 1e+08 ± 1.5e+07 M⁻¹ s⁻¹
selectivity for Kv1.2 over Kv1.3 (hKv1.2): ~ 450 fold
selectivity for Kv1.2 over KCa3.1 (hKv1.2; KCa3.1 IC50 estimated from a single concentration): > 32,000 fold
selectivity for Kv1.2 over Kv1.1 (hKv1.2; Kv1.1 IC50 estimated from a single concentration): ~ 12,000 fold
τon, representative fit (hKv1.2; Kv1.2, 100 pM, representative fit (Figure S5A)): 75.3 s
τon (development of block) (hKv1.2; Kv1.2, 100 pM, single-exponential fits cell-by-cell, n = 4): 104 ± 15 s
Hill coefficient (H) (hKv1.2; Kv1.2): 1.03
τoff (wash-out) (hKv1.2; Kv1.2, after 100 pM, n = 4): 5978 ± 538 s
τoff, representative fit (hKv1.2; Kv1.2, after 100 pM, representative fit (Figure S5A)): 7380 s
selectivity over several other ion channels (hKv1.2; Kv1.2 vs several other ion channels): three orders of magnitude selectivity over several other ion channels
mode of block (hKv1.2): pore blockers that interact with channels with 1:1 stoichiometry in a bimolecular interaction
recovery of blocked Kv1.2 current (hKv1.2; toxin-free solution for ~15 min after 100 pM): just one-fifth of the blocked current recovered
reversibility of Kv1.2 block (hKv1.2): virtually irreversible inhibitor of Kv1.2
